Data taken from US4542018A, “Teichomycin A2 pure single factors 1, 2, 3, 4 and 5 and method for their production” (Gruppo Lepetit S.p.A., priority 1982, dated 1985).

How the values were obtained:
[1] = tested on: Gram-positive bacteria; assay: In vitro antibacterial spectrum; type: cell-based
Method: (§1) Penassay broth (Difco) and Todd-Hewitt broth (Difco) were used for staphylococci and streptococci respectively. Overnight broth cultures were diluted so that the final inoculum was about 10^3 colony forming units/ml.

[2] = tested on: S. aureus ATCC 6538; assay: Microbiological potency by agar diffusion method, Teichomycin A2 complex as standard; type: cell-based; details: 2.5-20 μg/ml, 37° C., 18 hours
Method: In particular an adeguate amount of Teichomycin A2 factor 1, Teichomycin A2 factor 2, Teichomycin A2 factor 3, Teichomycin A2 factor 4, Teichomycin A2 factor 5 and Teichomycin A2 complex used as the standard is dissolved in dimethylformamide at a concentration of 2000 μg/ml. These solutions are further diluted using phosphate buffer 0.067 M pH 7.4 supplemented with 1% bovine serum in order to provide the following concentrations: 2.5, 5, 10, and 20 μg/ml.
Filter paper discs are then soaked into the sample solutions and placed at regular intervals on the surface of agar plates seeded with a suspension of the test microorganism. The plates are incubated at 37° C. for 18 hours and then the diameter of the inhibition zones are measured. The data obtained are fed into a computer to calculate the potency of the individual factors relative to the complex.

[3] = tested on: Streptococcus salivarius; assay: In vitro antibacterial activity (MIC), two-fold dilution in microtiter system; type: cell-based; details: 1 tested strain, clinical isolate, Todd-Hewitt broth, 18-24 h at 37° C.
Method: as §1

[4] = tested on: Staphylococcus epidermidis; assay: as above; type: cell-based; details: 4 tested strains, clinical isolates, Penassay broth, 18-24 h at 37° C.
Method: as §1

[5] = tested on: Streptococcus mitis; assay: as above; type: cell-based; details: 1 tested strain, clinical isolate, Todd-Hewitt broth, 18-24 h at 37° C.
Method: as §1

[6] = tested on: Streptococcus agalactiae; assay: as above; type: cell-based; details: 1 tested strain, clinical isolate, Todd-Hewitt broth, 18-24 h at 37° C.
Method: as §1

[7] = tested on: Staphylococcus aureus; assay: as above; type: cell-based; details: 5 tested strains, clinical isolates, Penassay broth, 18-24 h at 37° C.
Method: as §1

[8] = tested on: Streptococcus pneumoniae; assay: as above; type: cell-based; details: 6 tested strains, clinical isolates, Todd-Hewitt broth, 18-24 h at 37° C.
Method: as §1

[9] = tested on: Streptococcus sanguis; assay: as above; type: cell-based; details: 1 tested strain, clinical isolate, Todd-Hewitt broth, 18-24 h at 37° C.
Method: as §1

[10] = tested on: Streptococcus bovis; assay: as above; type: cell-based; details: 1 tested strain, clinical isolate, Todd-Hewitt broth, 18-24 h at 37° C.
Method: as §1

[11] = tested on: Streptococcus faecalis; assay: as above; type: cell-based; details: 5 tested strains, clinical isolates, Todd-Hewitt broth, 18-24 h at 37° C.
Method: as §1

[12] = tested on: Streptococcus pyogenes; assay: as above; type: cell-based; details: 7 tested strains, clinical isolates, Todd-Hewitt broth, 18-24 h at 37° C.
Method: as §1

[13] = Solubility; type: physicochemical; details: for solubility in water: water at pH>7.0 or at pH<2
[14] = tested on: S. pyogenes L 49; assay: In vivo antibacterial activity, experimental infection in mice; details: s.c.
Method: (§2) Teichomycin A2 factors 2,3,4 and 5 were tested in the experimental infections caused by S. pneumoniae and by S. pyogenes in mice. The experiments were carried out in comparison with Teichomycin A2 complex.

[15] = tested on: S. pneumoniae L 44; assay: as above; details: s.c.
Method: as §2

SMILES	in vitro antibacterial activity (spectrum) [1]	microbiological potency relative to the complex [2] [U/mg]	M.I.C. [3] [µg/mL]	M.I.C. [4] [µg/mL]	M.I.C. [5] [µg/mL]	M.I.C. [6] [µg/mL]	M.I.C. [7] [µg/mL]	M.I.C. [8] [µg/mL]	M.I.C. [9] [µg/mL]	M.I.C. [10] [µg/mL]	M.I.C. [11] [µg/mL]	M.I.C. [12] [µg/mL]	solubility in chloroform, benzene, n-hexane, acetonitrile, ethyl ether, acetone, ethyl acetate, carbon tetrachloride [13]	solubility in dimethylformamide, dimethylsulfoxide and propyleneglycol [13]	solubility in methanol and ethanol [13]	solubility in methylcellosolve and glycerol [13]	solubility in water [13]	ED50 [14]	ED50 [15]
CCCCC/C=C\CCC(=O)N[C@H]1[C@H](Oc2c3cc4cc2Oc2ccc(cc2Cl)[C@@H](O[C@@H]2O[C@H](CO)[C@@H](O)[C@H](O)[C@H]2NC(C)=O)[C@@H]2NC(=O)[C@H](NC(=O)[C@@H]4NC(=O)[C@H]4NC(=O)[C@@H](Cc5ccc(c(Cl)c5)O3)NC(=O)[C@H](N)c3ccc(O)c(c3)Oc3cc(O)cc4c3)c3ccc(O)c(c3)-c3c(O[C@H]4O[C@H](CO)[C@@H](O)[C@H](O)[C@@H]4O)cc(O)cc3[C@@H](C(=O)O)NC2=O)O[C@H](CO)[C@@H](O)[C@@H]1O [Teichomycin A2 factor 1]	mainly active against Gram-positive bacteria	841	0.2	0.2 to 1.6	0.025	0.1	0.8 to 1.6	0.1 to 0.2	0.1	0.4	0.2 to 0.4	0.05 to 0.1	almost insoluble	freely soluble	poorly soluble	slightly soluble	freely soluble		
CC(=O)N[C@H]1[C@H](O[C@@H]2c3ccc(c(Cl)c3)Oc3cc4cc(c3O[C@@H]3O[C@H](CO)[C@@H](O)[C@H](O)[C@H]3NC(=O)CCCCCCC(C)C)Oc3ccc(cc3Cl)C[C@H]3NC(=O)[C@H](N)c5ccc(O)c(c5)Oc5cc(O)cc(c5)[C@H](NC3=O)C(=O)N[C@H]4C(=O)N[C@H]3C(=O)N[C@@H]2C(=O)N[C@H](C(=O)O)c2cc(O)cc(O[C@H]4O[C@H](CO)[C@@H](O)[C@H](O)[C@@H]4O)c2-c2cc3ccc2O)O[C@H](CO)[C@@H](O)[C@@H]1O [Teichomycin A2 factor 2]	mainly active against Gram-positive bacteria	1086	0.2	0.1 to 1.6	0.025	0.1	0.8 to 1.6	0.05 to 0.1	0.1	0.4	0.1 to 0.4	0.025 to 0.1	almost insoluble	freely soluble	poorly soluble	slightly soluble	freely soluble	0.15 (0.13-0.18) mg/kg/day	0.28 (0.22-0.34) mg/kg/day
CCCCCCCCCC(=O)N[C@H]1[C@H](Oc2c3cc4cc2Oc2ccc(cc2Cl)[C@@H](O[C@@H]2O[C@H](CO)[C@@H](O)[C@H](O)[C@H]2NC(C)=O)[C@@H]2NC(=O)[C@H](NC(=O)[C@@H]4NC(=O)[C@H]4NC(=O)[C@H](Cc5ccc(c(Cl)c5)O3)NC(=O)[C@H](N)c3ccc(O)c(c3)Oc3cc(O)cc4c3)c3ccc(O)c(c3)-c3c(O[C@H]4O[C@H](CO)[C@@H](O)[C@H](O)[C@@H]4O)cc(O)cc3[C@@H](C(=O)O)NC2=O)O[C@H](CO)[C@@H](O)[C@@H]1O [Teichomycin A2 factor 3]	mainly active against Gram-positive bacteria	1131	0.1	0.2 to 0.8	0.0125	0.05	0.4 to 0.8	0.05 to 0.1	0.1	0.2	0.1 to 0.2	0.025 to 0.05	almost insoluble	freely soluble	poorly soluble	slightly soluble	freely soluble	0.13 (0.11-0.16) mg/kg/day	0.27 (0.23-0.32) mg/kg/day
CCC(C)CCCCCCC(=O)N[C@H]1[C@H](Oc2c3cc4cc2Oc2ccc(cc2Cl)[C@@H](O[C@@H]2O[C@H](CO)[C@@H](O)[C@H](O)[C@H]2NC(C)=O)[C@@H]2NC(=O)[C@H](NC(=O)[C@@H]4NC(=O)[C@H]4NC(=O)[C@@H](Cc5ccc(c(Cl)c5)O3)NC(=O)[C@H](N)c3ccc(O)c(c3)Oc3cc(O)cc4c3)c3ccc(O)c(c3)-c3c(O[C@H]4O[C@H](CO)[C@@H](O)[C@H](O)[C@@H]4O)cc(O)cc3[C@@H](C(=O)O)NC2=O)O[C@H](CO)[C@@H](O)[C@@H]1O (stereo partly shown) [Teichomycin A2 factor 4]	mainly active against Gram-positive bacteria	1066	0.05	0.2 to 0.8	0.025	0.1	0.2 to 0.8	0.05 to 0.1	0.05	0.4	0.1 to 0.4	0.006 to 0.05	almost insoluble	freely soluble	poorly soluble	slightly soluble	freely soluble		
CC(=O)N[C@H]1[C@H](O[C@@H]2c3ccc(c(Cl)c3)Oc3cc4cc(c3O[C@@H]3O[C@H](CO)[C@@H](O)[C@H](O)[C@H]3NC(=O)CCCCCCCC(C)C)Oc3ccc(cc3Cl)C[C@H]3NC(=O)[C@H](N)c5ccc(O)c(c5)Oc5cc(O)cc(c5)[C@H](NC3=O)C(=O)N[C@H]4C(=O)N[C@H]3C(=O)N[C@@H]2C(=O)N[C@H](C(=O)O)c2cc(O)cc(O[C@H]4O[C@H](CO)[C@@H](O)[C@H](O)[C@@H]4O)c2-c2cc3ccc2O)O[C@H](CO)[C@@H](O)[C@@H]1O [Teichomycin A2 factor 5]	mainly active against Gram-positive bacteria	954	0.05	0.2 to 0.8	0.025	0.1	0.2 to 0.8	0.05 to 0.1	0.05	0.4	0.1 to 0.4	0.006 to 0.05	almost insoluble	freely soluble	poorly soluble	slightly soluble	freely soluble	0.10 (0.098-0.13) mg/kg/day	0.13 (0.10-0.15) mg/kg/day
